Molecular target: GCN2 (Homo sapiens, UniProt Q9P2K8)
Assay: TR-FRET biochemical assay for inhibition of GCN2 (Example 106, for Example 1-4BB)

Sequence of GCN2 (Q9P2K8 whole entry): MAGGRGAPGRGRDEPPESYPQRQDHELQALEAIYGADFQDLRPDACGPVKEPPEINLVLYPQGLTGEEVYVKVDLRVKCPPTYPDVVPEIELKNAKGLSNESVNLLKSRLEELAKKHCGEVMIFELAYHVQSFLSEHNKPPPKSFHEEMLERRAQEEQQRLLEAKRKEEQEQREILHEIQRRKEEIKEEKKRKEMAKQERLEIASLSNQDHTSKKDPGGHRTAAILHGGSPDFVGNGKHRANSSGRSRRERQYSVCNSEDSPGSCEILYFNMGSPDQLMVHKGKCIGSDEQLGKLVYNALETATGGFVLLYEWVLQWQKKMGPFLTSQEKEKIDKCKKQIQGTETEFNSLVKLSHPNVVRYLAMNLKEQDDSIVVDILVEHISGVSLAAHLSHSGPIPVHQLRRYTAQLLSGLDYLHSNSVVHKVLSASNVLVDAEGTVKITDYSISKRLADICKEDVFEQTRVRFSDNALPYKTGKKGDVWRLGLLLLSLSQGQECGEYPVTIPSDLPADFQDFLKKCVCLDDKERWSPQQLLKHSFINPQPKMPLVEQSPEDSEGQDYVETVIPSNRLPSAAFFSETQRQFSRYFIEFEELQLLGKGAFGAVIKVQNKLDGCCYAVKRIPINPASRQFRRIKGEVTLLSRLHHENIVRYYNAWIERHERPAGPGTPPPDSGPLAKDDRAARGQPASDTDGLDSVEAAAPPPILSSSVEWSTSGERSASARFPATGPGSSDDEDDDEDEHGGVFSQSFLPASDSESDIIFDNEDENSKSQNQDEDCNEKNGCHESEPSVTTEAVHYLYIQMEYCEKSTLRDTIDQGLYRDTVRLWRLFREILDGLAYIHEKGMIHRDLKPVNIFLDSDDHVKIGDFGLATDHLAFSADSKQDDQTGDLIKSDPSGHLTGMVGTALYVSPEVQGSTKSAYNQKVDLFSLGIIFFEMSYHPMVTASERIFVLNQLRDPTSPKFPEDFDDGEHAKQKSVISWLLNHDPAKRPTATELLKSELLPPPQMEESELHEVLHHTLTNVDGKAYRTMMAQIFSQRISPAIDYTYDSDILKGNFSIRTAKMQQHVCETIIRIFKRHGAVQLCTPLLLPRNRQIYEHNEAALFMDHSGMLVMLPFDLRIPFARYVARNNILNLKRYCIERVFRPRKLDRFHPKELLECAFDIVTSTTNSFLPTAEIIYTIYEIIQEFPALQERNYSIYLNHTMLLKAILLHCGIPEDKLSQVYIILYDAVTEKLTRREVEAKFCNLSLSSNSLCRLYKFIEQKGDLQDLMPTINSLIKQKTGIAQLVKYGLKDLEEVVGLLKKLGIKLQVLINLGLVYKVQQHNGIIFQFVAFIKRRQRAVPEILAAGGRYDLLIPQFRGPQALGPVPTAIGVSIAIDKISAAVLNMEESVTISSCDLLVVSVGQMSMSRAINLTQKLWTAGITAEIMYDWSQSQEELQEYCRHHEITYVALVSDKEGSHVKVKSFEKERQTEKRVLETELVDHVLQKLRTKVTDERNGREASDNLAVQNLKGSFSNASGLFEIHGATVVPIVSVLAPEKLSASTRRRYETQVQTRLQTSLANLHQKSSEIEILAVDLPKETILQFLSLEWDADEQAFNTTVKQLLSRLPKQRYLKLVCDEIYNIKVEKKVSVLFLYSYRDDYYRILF

SMILES: Cn1nncc1S(=O)(=O)Nc1ccc(F)c(-c2ccc3c(-c4ncc[nH]4)n[nH]c3c2F)c1F [Example 2X, N-(2,4-difluoro-3-(7-fluoro-3-(1H-imidazol-2-yl)-1H-indazol-6-yl)phenyl)-1-methyl-1H-1,2,3-triazole-5-sulfonamide]
- IC50 (Table 8): 2500 to 10000 nM

SMILES: Cn1ncc(S(=O)(=O)Nc2ccc(F)c(-c3ccc4c(-c5ncc[nH]5)n[nH]c4c3F)c2F)n1 [Example 2Y, N-(2,4-difluoro-3-(7-fluoro-3-(1H-imidazol-2-yl)-1H-indazol-6-yl)phenyl)-2-methyl-2H-l,2,3-triazole-4-sulfonamide]
- IC50 (Table 8): 2500 to 10000 nM

SMILES: COc1ncc(Cl)cc1S(=O)(=O)Nc1ccc(F)c(-c2ccc3c(C(N)=O)n[nH]c3c2F)c1F [Example 2Z, 6-(3-((5-chloro-2-methoxy-pyridine)-3-sulfonamido)-2,6-difluorophenyl)-7-fluoro-1H-indazole-3-carboxamide]
- IC50 (Table 8): < 500 nM

SMILES: O=S(=O)(Nc1ccc(F)c(-c2ccc3c(-c4ncc[nH]4)n[nH]c3c2F)c1F)c1cccc(CO)c1 [Example 3, N-(2,4-Difluoro-3-(7-fluoro-3-(1H-imidazol-2-yl)-1H-indazol-6-yl)phenyl)-3-(hydroxymethyl)benzenesulfonamide]
- IC50 (Table 8): < 500 nM

SMILES: COc1ncc(Cl)cc1S(=O)(=O)Nc1c(F)ccc(-c2ccc3c(-c4ncc[nH]4)n[nH]c3c2F)c1F [Example 3A, 5-chloro-N-(2,6-difluoro-3-(7-fluoro-3-(1H-imidazol-2-yl)-1H-indazol-6-yl)phenyl)-2-methoxypyridine-3-sulfonamide]
- IC50 (Table 9): < 500 nM

SMILES: NC(=O)c1n[nH]c2c(F)c(-c3c(F)ccc(NS(=O)(=O)c4cccn5ccnc45)c3F)ccc12 [Example 3AA, 6-(2,6-difluoro-3-(imidazo-[1,2-a]pyridine-8-sulfon-amido)phenyl)-7-fluoro-1H-indazole-3-carboxamide]
- IC50 (Table 9): 2500 to 10000 nM

SMILES: COc1ncc(F)cc1S(=O)(=O)Nc1ccc(F)c(-c2ccc3c(C(=O)N[C@@H]4CCN(C)C4)n[nH]c3c2F)c1F [Example 3AB, 6-(3-((5-fluoro-2-methoxy-pyridine)-3-sulfonamido)-2,6-difluorophenyl)-7-fluoro-N-((R)-1-methylpyrrolidin-3-yl)-1H-indazole-3-carboxamide]
- IC50 (Table 9): < 500 nM

SMILES: COc1ncc(F)cc1S(=O)(=O)Nc1ccc(F)c(-c2ccc3c(C(=O)N[C@H]4CCN(C)C4)n[nH]c3c2F)c1F [Example 3AC, 6-(3-((5-fluoro-2-methoxy-pyridine)-3-sulfonamido)-2,6-difluorophenyl)-7-fluoro-N-((S)-1-methylpyrrolidin-3-yl)-1H-indazole-3-carboxamide]
- IC50 (Table 9): 500 to 2500 nM

SMILES: COc1ncc(Cl)cc1S(=O)(=O)Nc1ccc(F)c(-c2ccc3c(C(=O)N[C@@H]4CCN(C)C4)n[nH]c3c2F)c1F [Example 3AD, 6-(3-((5-chloro-2-methoxy-pyridine)-3-sulfonamido)-2,6-difluorophenyl)-7-fluoro-N-((R)-1-methylpyrrolidin-3-yl)-1H-indazole-3-carboxamide]
- IC50 (Table 9): < 500 nM

SMILES: COc1ncc(Cl)cc1S(=O)(=O)Nc1ccc(F)c(-c2ccc3c(C(=O)N[C@H]4CCN(C)C4)n[nH]c3c2F)c1F [Example 3AF, 6-(3-((5-chloro-2-methoxy-pyridine)-3-sulfonamido)-2,6-difluorophenyl)-7-fluoro-N-((S)-1-methylpyrrolidin-3-yl)-1H-indazole-3-carboxamide]
- IC50 (Table 9): < 500 nM

SMILES: COc1ncc(Cl)cc1S(=O)(=O)Nc1cccc(-c2ncc3c(-c4ncc[nH]4)n[nH]c3c2F)c1F [Example 3AG, 5-chloro-N-(2-fluoro-3-(7-fluoro-3-(1H-imidazol-2-yl)-1H-pyrazolo[4,3-c]pyridin-6-yl)phenyl)-2-methoxy-pyridine-3-sulfonamide]
- IC50 (Table 9): < 500 nM

SMILES: COc1ncc(F)cc1S(=O)(=O)Nc1ccc(F)c(-c2ccc3c(C(=O)NC[C@@H](O)CO)n[nH]c3c2F)c1F [Example 3AH, 6-(2,6-difluoro-3-((5-fluoro-2-methoxypyridine)-3-sulfonamido)phenyl)-N-((R)-2,3-dihydroxypropyl)-7-fluoro-1H-indazole-3-carboxamide]
- IC50 (Table 9): < 500 nM

SMILES: COc1ncc(F)cc1S(=O)(=O)Nc1ccc(F)c(-c2ccc3c(C(=O)NC[C@H](O)CO)n[nH]c3c2F)c1F [Example 3AI, 6-(2,6-difluoro-3-((5-fluoro-2-methoxypyridine)-3-sulfonamido)phenyl)-N-((R)-2,3-dihydroxypropyl)-7-fluoro-1H-indazole-3-carboxamide]
- IC50 (Table 9): < 500 nM

SMILES: COc1ncc(F)cc1S(=O)(=O)Nc1ccc(F)c(-c2ccc3c(C(=O)NC4CCN(C)CC4)n[nH]c3c2F)c1F [Example 3AJ, 6-(2,6-difluoro-3-((5-fluoro-2-methoxypyridine)-3-sulfonamido)phenyl)-7-fluoro-N-(1-methylpiperidin-4-yl)-1H-indazole-3-carboxamide]
- IC50 (Table 9): < 500 nM

SMILES: COc1ncc(F)cc1S(=O)(=O)Nc1ccc(F)c(-c2ccc3c(C(=O)NCC4CCN(C)CC4)n[nH]c3c2F)c1F [Example 3AK, 6-(2,6-difluoro-3-((5-fluoro-2-methoxypyridine)-3-sulfonamido)phenyl)-7-fluoro-N-((1-methylpiperidin-4-yl)methyl)-1H-indazole-3-carboxamide]
- IC50 (Table 9): < 500 nM

SMILES: COc1ncc(F)cc1S(=O)(=O)Nc1ccc(F)c(-c2ccc3c(C(=O)NCCC(N)=O)n[nH]c3c2F)c1F [Example 3AL, N-(3-amino-3-oxopropyl)-6-(2,6-difluoro-3-((5-fluoro-2-methoxypyridine)-3-sulfonamido)phenyl)-7-fluoro-1H-indazole-3-carboxamide]
- IC50 (Table 9): < 500 nM

SMILES: COc1ncc(F)cc1S(=O)(=O)Nc1ccc(F)c(-c2ccc3c(C(=O)NCC(N)=O)n[nH]c3c2F)c1F [Example 3AM, N-(2-amino-2-oxoethyl)-6-(2,6-difluoro-3-((5-fluoro-2-methoxypyridine)-3-sulfon-amido)phenyl)-7-fluoro-1H-indazole-3-carboxamide]
- IC50 (Table 9): 500 to 2500 nM

SMILES: COc1ncc(F)cc1S(=O)(=O)Nc1cccc(-c2ccc3c(C(N)=O)n[nH]c3c2F)c1F [Example 3AN, 7-fluoro-6-(2-fluoro-3-((5-fluoro-2-methoxypyridine)-3-sulfonamido)phenyl)-1H-indazole-3-carboxamide]
- IC50 (Table 9): < 500 nM

SMILES: COc1ccc(NS(=O)(=O)c2cc(F)cnc2OC)c(F)c1-c1ccc2c(C(N)=O)n[nH]c2c1F [Example 3AO, 7-fluoro-6-(2-fluoro-3-((5-fluoro-2-methoxypyridine)-3-sulfonamido)-6-methoxy-phenyl)-1H-indazole-3-carboxamide]
- IC50 (Table 9): 500 to 2500 nM

SMILES: COc1ncc(F)cc1S(=O)(=O)Nc1cc(F)cc(-c2ccc3c(C(=O)NCCCO)n[nH]c3c2F)c1F [Example 3AP, 6-(2,5-difluoro-3-((5-fluoro-2-methoxypyridine)-3-sulfon-amido)phenyl)-7-fluoro-N-(3-hydroxypropyl)-1H-indazole-3-carboxamide]
- IC50 (Table 9): < 500 nM

SMILES: COc1ncc(F)cc1S(=O)(=O)Nc1cc(F)cc(-c2ccc3c(C(N)=O)n[nH]c3c2F)c1F [Example 3AQ, 6-(2,5-difluoro-3-((5-fluoro-2-methoxypyridine)-3-sulfon-amido)phenyl)-7-fluoro-1H-indazole-3-carboxamide]
- IC50 (Table 9): < 500 nM

SMILES: O=C(NCCCO)c1n[nH]c2c(F)c(-c3c(F)ccc(NS(=O)(=O)c4cccn5ccnc45)c3F)ccc12 [Example 3AR, 6-(2,6-difluoro-3-(imidazo-[1,2-a]pyridine-8-sulfon-amido)phenyl)-7-fluoro-N-(3-hydroxypropyl)-1H-indazole-3-carboxamide]
- IC50 (Table 9): 2500 to 10000 nM

SMILES: COc1ncc(F)cc1S(=O)(=O)Nc1cc(F)cc(-c2ccc3c(-c4ncc[nH]4)n[nH]c3c2F)c1F [Example 3AS, N-(2,5-difluoro-3-(7-fluoro-3-(1H-imidazol-2-yl)-1H-indazol-6-yl)phenyl)-5-fluoro-2-methoxypyridine-3-sulfonamide]
- IC50 (Table 9): < 500 nM

SMILES: COc1ncc(F)cc1S(=O)(=O)Nc1ccc(F)c(-c2ccc3c(C(=O)NCC(CO)CO)n[nH]c3c2F)c1F [Example 3AT, 6-(2,6-difluoro-3-((5-fluoro-2-methoxypyridine)-3-sulfonamido)phenyl)-7-fluoro-N-(3-hydroxy-2-(hydroxymethyl)propyl)-1H-indazole-3-carboxamide]
- IC50 (Table 9): < 500 nM

SMILES: COc1ncc(F)cc1S(=O)(=O)Nc1ccc(F)c(-c2ccc3c(C(=O)NC4CCNCC4)n[nH]c3c2F)c1F [Example 3AU, 6-(2,6-difluoro-3-((5-fluoro-2-methoxypyridine)-3-sulfonamido)phenyl)-7-fluoro-N-(piperidin-4-yl)-1H-indazole-3-carboxamide]
- IC50 (Table 9): 500 to 2500 nM

SMILES: COc1ncc(F)cc1S(=O)(=O)Nc1ccc(F)c(-c2ccc3c(C(=O)NCCCNC(C)=O)n[nH]c3c2F)c1F [Example 3AV, N-(3-acetamidopropyl)-6-(2,6-difluoro-3-((5-fluoro-2-methoxypyridine)-3-sulfon-amido)phenyl)-7-fluoro-1H-indazole-3-carboxamide]
- IC50 (Table 9): < 500 nM

SMILES: COc1ncc(F)cc1S(=O)(=O)Nc1ccc(F)c(-c2ccc3c(C(=O)NCC#N)n[nH]c3c2F)c1F [Example 3AW, N-(cyanomethyl)-6-(2,6-difluoro-3-((5-fluoro-2-methoxypyridine)-3-sulfon-amido)phenyl)-7-fluoro-1H-indazole-3-carboxamide]
- IC50 (Table 9): < 500 nM

SMILES: COc1ncc(F)cc1S(=O)(=O)Nc1cccc(-c2ccc3c(C(=O)NC[C@@H](O)CO)n[nH]c3c2F)c1F [Example 3AX, 6-(2-fluoro-3-((5-fluoro-2-methoxypyridine)-3-sulfonamido)phenyl)-N-((R)-2,3-dihydroxypropyl)-7-fluoro-1H-indazole-3-carboxamide]
- IC50 (Table 9): 500 to 2500 nM

SMILES: COc1ncc(F)cc1S(=O)(=O)Nc1cccc(-c2ccc3c(C(=O)NC[C@H](O)CO)n[nH]c3c2F)c1F [Example 3AY, 6-(2-fluoro-3-((5-fluoro-2-methoxypyridine)-3-sulfonamido)phenyl)-N-((S)-2,3-dihydroxypropyl)-7-fluoro-1H-indazole-3-carboxamide]
- IC50 (Table 9): 500 to 2500 nM

SMILES: Cc1ncc(F)cc1S(=O)(=O)Nc1ccc(F)c(-c2ccc3c(C(=O)NCCCO)n[nH]c3c2F)c1F [Example 3AZ, 6-(2,6-difluoro-3-((5-fluoro-2-methylpyridine)-3-sulfonamido)phenyl)-7-fluoro-N-(3-hydroxypropyl)-1H-indazole-3-carboxamide]
- IC50 (Table 9): < 500 nM

Source: patent publication US20220388964A1 (HiberCell, Inc., priority 2019, published 2022)
